From article PMC9621292, “Design and synthesis of some new benzoylthioureido benzenesulfonamide derivatives and their analogues as carbonic anhydrase inhibitors” (Journal of Enzyme Inhibition and Medicinal Chemistry, 2022)

Target: hCA II (Homo sapiens, UniProt P00918)
Assay: Stopped flow CO2 hydrase assay, hCA II
Conditions: not given

| Ki [µM] | SMILES |
| --- | --- |
| 0.546 | CCOC(=O)c1ccc(NC(=S)NC(=O)c2cccc(NC(=O)c3ccc(C)cc3)c2)cc1 [Compound 9c, Ethyl 4–(3-(3–(4-methylbenzamido)benzoyl)thioureido)benzoate] |
| > 100 | CCOC(=O)c1ccc(NC(=S)NC(=O)c2cccc(NC(C)=O)c2)cc1 [Compound 9a, Ethyl 4–(3-(3-acetamidobenzoyl)thioureido)benzoate] |
| 0.0732 | CCOC(=O)c1ccc(NC(=S)NC(=O)c2ccc(NC(=O)C(C)C)cc2)cc1 [Compound 9e, Ethyl 4–(3-(4-isobutyramidobenzoyl)thioureido)benzoate] |
| 0.701 | CC(=O)Nc1ccc(C(=O)NC(=S)Nc2ccc(S(N)(=O)=O)cc2)cc1 [Compound 7d, 4-Acetamido-N-((4-sulfamoylphenyl)carbamothioyl)benzamide] |
| 0.0021 | CC(C)C(=O)Nc1cccc(C(=O)NC(=S)Nc2ccc(S(N)(=O)=O)cc2)c1 [Compound 7b, 3-Isobutyramido-N-((4-sulfamoylphenyl)carbamothioyl)benzamide] |
| 0.0025 | CC(=O)Nc1cccc(C(=O)NC(=S)Nc2ccc(S(N)(=O)=O)cc2)c1 [Compound 7a, 3-Acetamido-N-((4-sulfamoylphenyl)carbamothioyl)benzamide] |
| > 100 | CCOC(=O)c1ccc(NC(=S)NC(=O)c2ccc(NC(=O)c3ccc(C)cc3)cc2)cc1 [Compound 9f, Ethyl 4–(3-(4–(4-methylbenzamido)benzoyl)thioureido)benzoate] |
| 0.0396 | CC(C)C(=O)Nc1ccc(C(=O)NC(=S)Nc2ccc(S(N)(=O)=O)cc2)cc1 [Compound 7e, 4-Isobutyramido-N-((4-sulfamoylphenyl)carbamothioyl)benzamide] |
| 5.4 | CC(=O)Nc1cccc(C(=O)NC(=S)Nc2ccc(C(=O)O)cc2)c1 [Compound 8a, 4-(3-(3-Acetamidobenzoyl)thioureido)benzoic acid] |

Tested on: not given
Assay: not given
Conditions: not given

| melting point [°C] | SMILES |
| --- | --- |
| 236 to 238 | CCOC(=O)c1ccc(NC(=S)NC(=O)c2cccc(NC(=O)c3ccc(C)cc3)c2)cc1 [Compound 9c, Ethyl 4–(3-(3–(4-methylbenzamido)benzoyl)thioureido)benzoate] |
| 242 to 244 | CCOC(=O)c1ccc(NC(=S)NC(=O)c2cccc(NC(C)=O)c2)cc1 [Compound 9a, Ethyl 4–(3-(3-acetamidobenzoyl)thioureido)benzoate] |
| 245 to 247 | CCOC(=O)c1ccc(NC(=S)NC(=O)c2ccc(NC(=O)C(C)C)cc2)cc1 [Compound 9e, Ethyl 4–(3-(4-isobutyramidobenzoyl)thioureido)benzoate] |
| 218 to 220 | CC(=O)Nc1ccc(C(=O)NC(=S)Nc2ccc(S(N)(=O)=O)cc2)cc1 [Compound 7d, 4-Acetamido-N-((4-sulfamoylphenyl)carbamothioyl)benzamide] |
| 240 to 242 | CC(C)C(=O)Nc1cccc(C(=O)NC(=S)Nc2ccc(S(N)(=O)=O)cc2)c1 [Compound 7b, 3-Isobutyramido-N-((4-sulfamoylphenyl)carbamothioyl)benzamide] |
| 256 to 258 | CC(=O)Nc1cccc(C(=O)NC(=S)Nc2ccc(S(N)(=O)=O)cc2)c1 [Compound 7a, 3-Acetamido-N-((4-sulfamoylphenyl)carbamothioyl)benzamide] |
| 237 to 239 | CCOC(=O)c1ccc(NC(=S)NC(=O)c2ccc(NC(=O)c3ccc(C)cc3)cc2)cc1 [Compound 9f, Ethyl 4–(3-(4–(4-methylbenzamido)benzoyl)thioureido)benzoate] |
| 248 to 250 | CC(C)C(=O)Nc1ccc(C(=O)NC(=S)Nc2ccc(S(N)(=O)=O)cc2)cc1 [Compound 7e, 4-Isobutyramido-N-((4-sulfamoylphenyl)carbamothioyl)benzamide] |
| 247 to 249 | CC(=O)Nc1cccc(C(=O)NC(=S)Nc2ccc(C(=O)O)cc2)c1 [Compound 8a, 4-(3-(3-Acetamidobenzoyl)thioureido)benzoic acid] |

Target: hCA I (Homo sapiens, UniProt P00915)
Assay: Stopped flow CO2 hydrase assay, hCA I
Conditions: not given

Sequence of hCA I (P00915 whole entry): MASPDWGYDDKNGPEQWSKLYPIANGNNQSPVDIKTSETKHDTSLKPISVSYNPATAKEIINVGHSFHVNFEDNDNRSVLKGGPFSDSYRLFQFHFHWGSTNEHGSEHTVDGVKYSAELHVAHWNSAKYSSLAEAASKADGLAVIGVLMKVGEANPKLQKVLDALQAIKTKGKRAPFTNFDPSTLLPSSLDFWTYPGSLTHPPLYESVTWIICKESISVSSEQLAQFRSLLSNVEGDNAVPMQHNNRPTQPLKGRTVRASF

| Ki [µM] | SMILES |
| --- | --- |
| > 100 | CCOC(=O)c1ccc(NC(=S)NC(=O)c2cccc(NC(=O)c3ccc(C)cc3)c2)cc1 [Compound 9c, Ethyl 4–(3-(3–(4-methylbenzamido)benzoyl)thioureido)benzoate] |
| 9.04 | CCOC(=O)c1ccc(NC(=S)NC(=O)c2cccc(NC(C)=O)c2)cc1 [Compound 9a, Ethyl 4–(3-(3-acetamidobenzoyl)thioureido)benzoate] |
| 8.5 | CCOC(=O)c1ccc(NC(=S)NC(=O)c2ccc(NC(=O)C(C)C)cc2)cc1 [Compound 9e, Ethyl 4–(3-(4-isobutyramidobenzoyl)thioureido)benzoate] |
| 5.45 | CC(=O)Nc1ccc(C(=O)NC(=S)Nc2ccc(S(N)(=O)=O)cc2)cc1 [Compound 7d, 4-Acetamido-N-((4-sulfamoylphenyl)carbamothioyl)benzamide] |
| 0.0563 | CC(C)C(=O)Nc1cccc(C(=O)NC(=S)Nc2ccc(S(N)(=O)=O)cc2)c1 [Compound 7b, 3-Isobutyramido-N-((4-sulfamoylphenyl)carbamothioyl)benzamide] |
| 0.0582 | CC(=O)Nc1cccc(C(=O)NC(=S)Nc2ccc(S(N)(=O)=O)cc2)c1 [Compound 7a, 3-Acetamido-N-((4-sulfamoylphenyl)carbamothioyl)benzamide] |
| > 100 | CCOC(=O)c1ccc(NC(=S)NC(=O)c2ccc(NC(=O)c3ccc(C)cc3)cc2)cc1 [Compound 9f, Ethyl 4–(3-(4–(4-methylbenzamido)benzoyl)thioureido)benzoate] |
| 0.333 | CC(C)C(=O)Nc1ccc(C(=O)NC(=S)Nc2ccc(S(N)(=O)=O)cc2)cc1 [Compound 7e, 4-Isobutyramido-N-((4-sulfamoylphenyl)carbamothioyl)benzamide] |
| 8.18 | CC(=O)Nc1cccc(C(=O)NC(=S)Nc2ccc(C(=O)O)cc2)c1 [Compound 8a, 4-(3-(3-Acetamidobenzoyl)thioureido)benzoic acid] |

Target: hCA XII (Homo sapiens, UniProt O43570)
Assay: Stopped flow CO2 hydrase assay, hCA XII
Conditions: not given

Sequence of hCA XII (O43570 25-354): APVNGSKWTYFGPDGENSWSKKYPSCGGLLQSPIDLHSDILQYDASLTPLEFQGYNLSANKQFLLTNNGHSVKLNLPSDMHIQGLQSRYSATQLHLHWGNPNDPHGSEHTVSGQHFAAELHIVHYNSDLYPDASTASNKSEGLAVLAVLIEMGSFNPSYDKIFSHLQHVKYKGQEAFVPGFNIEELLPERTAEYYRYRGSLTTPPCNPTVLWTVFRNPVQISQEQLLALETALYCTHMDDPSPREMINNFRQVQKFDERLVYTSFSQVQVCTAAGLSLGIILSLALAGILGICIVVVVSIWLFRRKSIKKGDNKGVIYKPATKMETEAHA

| Ki [µM] | SMILES |
| --- | --- |
| > 100 | CCOC(=O)c1ccc(NC(=S)NC(=O)c2cccc(NC(=O)c3ccc(C)cc3)c2)cc1 [Compound 9c, Ethyl 4–(3-(3–(4-methylbenzamido)benzoyl)thioureido)benzoate] |
| > 100 | CCOC(=O)c1ccc(NC(=S)NC(=O)c2cccc(NC(C)=O)c2)cc1 [Compound 9a, Ethyl 4–(3-(3-acetamidobenzoyl)thioureido)benzoate] |
| 0.202 | CCOC(=O)c1ccc(NC(=S)NC(=O)c2ccc(NC(=O)C(C)C)cc2)cc1 [Compound 9e, Ethyl 4–(3-(4-isobutyramidobenzoyl)thioureido)benzoate] |
| 0.097 | CC(=O)Nc1ccc(C(=O)NC(=S)Nc2ccc(S(N)(=O)=O)cc2)cc1 [Compound 7d, 4-Acetamido-N-((4-sulfamoylphenyl)carbamothioyl)benzamide] |
| > 100 | CC(C)C(=O)Nc1cccc(C(=O)NC(=S)Nc2ccc(S(N)(=O)=O)cc2)c1 [Compound 7b, 3-Isobutyramido-N-((4-sulfamoylphenyl)carbamothioyl)benzamide] |
| > 100 | CC(=O)Nc1cccc(C(=O)NC(=S)Nc2ccc(S(N)(=O)=O)cc2)c1 [Compound 7a, 3-Acetamido-N-((4-sulfamoylphenyl)carbamothioyl)benzamide] |
| 0.155 | CCOC(=O)c1ccc(NC(=S)NC(=O)c2ccc(NC(=O)c3ccc(C)cc3)cc2)cc1 [Compound 9f, Ethyl 4–(3-(4–(4-methylbenzamido)benzoyl)thioureido)benzoate] |
| 0.094 | CC(C)C(=O)Nc1ccc(C(=O)NC(=S)Nc2ccc(S(N)(=O)=O)cc2)cc1 [Compound 7e, 4-Isobutyramido-N-((4-sulfamoylphenyl)carbamothioyl)benzamide] |
| 0.017 | CC(=O)Nc1cccc(C(=O)NC(=S)Nc2ccc(C(=O)O)cc2)c1 [Compound 8a, 4-(3-(3-Acetamidobenzoyl)thioureido)benzoic acid] |

Same assay, conditions: inhibition of hCA XII over hCA I, calculated from Ki

| Selectivity index I/XII | SMILES |
| --- | --- |
| 481 | CC(=O)Nc1cccc(C(=O)NC(=S)Nc2ccc(C(=O)O)cc2)c1 [Compound 8a, 4-(3-(3-Acetamidobenzoyl)thioureido)benzoic acid] |

Same assay, conditions: inhibition of hCA XII over hCA II, calculated from Ki

| Selectivity index II/XII | SMILES |
| --- | --- |
| 318 | CC(=O)Nc1cccc(C(=O)NC(=S)Nc2ccc(C(=O)O)cc2)c1 [Compound 8a, 4-(3-(3-Acetamidobenzoyl)thioureido)benzoic acid] |

Target: hCA IX (Homo sapiens, UniProt Q16790)
Assay: Stopped flow CO2 hydrase assay, hCA IX
Conditions: not given

| Ki [µM] | SMILES |
| --- | --- |
| 0.251 | CCOC(=O)c1ccc(NC(=S)NC(=O)c2cccc(NC(=O)c3ccc(C)cc3)c2)cc1 [Compound 9c, Ethyl 4–(3-(3–(4-methylbenzamido)benzoyl)thioureido)benzoate] |
| 2.13 | CCOC(=O)c1ccc(NC(=S)NC(=O)c2cccc(NC(C)=O)c2)cc1 [Compound 9a, Ethyl 4–(3-(3-acetamidobenzoyl)thioureido)benzoate] |
| 0.029 | CCOC(=O)c1ccc(NC(=S)NC(=O)c2ccc(NC(=O)C(C)C)cc2)cc1 [Compound 9e, Ethyl 4–(3-(4-isobutyramidobenzoyl)thioureido)benzoate] |
| 0.168 | CC(=O)Nc1ccc(C(=O)NC(=S)Nc2ccc(S(N)(=O)=O)cc2)cc1 [Compound 7d, 4-Acetamido-N-((4-sulfamoylphenyl)carbamothioyl)benzamide] |
| 0.149 | CC(C)C(=O)Nc1cccc(C(=O)NC(=S)Nc2ccc(S(N)(=O)=O)cc2)c1 [Compound 7b, 3-Isobutyramido-N-((4-sulfamoylphenyl)carbamothioyl)benzamide] |
| 0.238 | CC(=O)Nc1cccc(C(=O)NC(=S)Nc2ccc(S(N)(=O)=O)cc2)c1 [Compound 7a, 3-Acetamido-N-((4-sulfamoylphenyl)carbamothioyl)benzamide] |
| 1.58 | CCOC(=O)c1ccc(NC(=S)NC(=O)c2ccc(NC(=O)c3ccc(C)cc3)cc2)cc1 [Compound 9f, Ethyl 4–(3-(4–(4-methylbenzamido)benzoyl)thioureido)benzoate] |
| 0.203 | CC(C)C(=O)Nc1ccc(C(=O)NC(=S)Nc2ccc(S(N)(=O)=O)cc2)cc1 [Compound 7e, 4-Isobutyramido-N-((4-sulfamoylphenyl)carbamothioyl)benzamide] |
| 0.209 | CC(=O)Nc1cccc(C(=O)NC(=S)Nc2ccc(C(=O)O)cc2)c1 [Compound 8a, 4-(3-(3-Acetamidobenzoyl)thioureido)benzoic acid] |

Same assay, conditions: inhibition of hCA IX over hCA I, calculated from Ki

| Selectivity index I/IX | SMILES |
| --- | --- |
| 293 | CCOC(=O)c1ccc(NC(=S)NC(=O)c2ccc(NC(=O)C(C)C)cc2)cc1 [Compound 9e, Ethyl 4–(3-(4-isobutyramidobenzoyl)thioureido)benzoate] |

Same assay, conditions: inhibition of hCA IX over hCA II, calculated from Ki

| Selectivity index II/IX | SMILES |
| --- | --- |
| 2.5 | CCOC(=O)c1ccc(NC(=S)NC(=O)c2ccc(NC(=O)C(C)C)cc2)cc1 [Compound 9e, Ethyl 4–(3-(4-isobutyramidobenzoyl)thioureido)benzoate] |
